In article PMC2481421, “Gene expression response in target organ and whole blood varies as a function of target organ injury phenotype” (Genome Biology, 2008):
Several values for one entry are separate records, joined by “and”; a condition that tells them apart may be missing. Equal entries are not always repeated. Entries after “also recorded” stand apart in the source; their conditions may differ.

Experiments:
[1] = In-life observations: body weight, gross findings before and at necropsy; format: in vivo, Male Fischer 344/N rats; conditions: individual animals
Description: Doses were determined with pilot experiments. […] Serum was collected for clinical chemistry.

[2] = test system: liver; experiment: Liver histopathology (H&E sections of left liver lobe, severity graded) after a single dose; conditions: for Primary site of livery injury: rat, single administration
Description: The animals were acclimated for 14 days and observed for absence of disease.
Doses were determined with pilot experiments. For each chemical, doses that elicited a sub-toxic ('low'), a moderately toxic ('medium') or a overtly toxic ('high') response 24 hours after treatment were selected. […] For each compound, control animal groups were treated with vehicle alone. All animals were fasted for 12-18 hours prior to exposure. Groups of four to six animals were dosed between 8:30 and 9:30 a.m.; thereafter, feed was provided ad libitum. After 6, 24 or 48 hours of treatment, animals were anesthetized by isoflurane anesthesia. Whole blood was collected via retro-orbital plexus for hematology and gene expression analysis. Serum was collected for clinical chemistry. The animals were euthanized while under anesthesia by cervical dislocation and necropsied within 4 minutes of sacrifice. The left liver lobe was promptly removed and two defined cross sections were placed in 10% neutral buffered formalin for subsequent histopathology.
The cross sections that were fixed by immersion in 10% neutral buffered formalin (see 'In-life studies' section above) were transferred to histology grade alcohol for 18-24 hours after necropsy. Tissues were then processed, embedded in paraffin, sectioned at 5 microns, and stained with hematoxylin and eosin. A pathologist completed the initial microscopic evaluation of each liver sample for a given compound. […] An independent pathology quality assessment review was performed by a second pathologist on the initial histopathological findings.

[3] = I.P., PBS vehicle, 25 mg/kg, 48 hours
[4] = I.P., PBS vehicle, 100 mg/kg, 48 hours
[5] = I.P., PBS vehicle, 400 mg/kg, 48 hours
[6] = Gavage, corn oil, 10 mg/kg, 6 hours
[7] = Gavage, corn oil, 10 mg/kg, 24 hours
[8] = Gavage, corn oil, 10 mg/kg, 48 hours
[9] = Gavage, corn oil, 30 mg/kg, 24 hours
[10] = Gavage, corn oil, 50 mg/kg, 6 hours
[11] = Gavage, corn oil, 50 mg/kg, 24 hours
[12] = Gavage, corn oil, 50 mg/kg, 48 hours
[13] = Gavage, corn oil, 300 mg/kg, 6 hours
[14] = Gavage, corn oil, 300 mg/kg, 24 hours
[15] = Gavage, corn oil, 300 mg/kg, 48 hours

N[C@H]1C(O)O[C@H](CO)[C@H](O)[C@@H]1O (some centres unmarked) [Galactosamine]
Clin/Ob Prior to Necropsy ([1]; 25 mg/kg, I.P., PBS, 6 hours): Normal
Gross Findings ([1]; 25 mg/kg, I.P., PBS, 6 hours): No Gross Findings; also recorded: Liver left lobe mottled, median lobe mottled with dark edges
Clin/Ob Prior to Necropsy ([1]; 25 mg/kg, I.P., PBS, 24 hours): Normal
Final Body Wt. ([1]; 25 mg/kg, I.P., PBS, 24 hours): 288.30 g and 287.60 g and 307.80 g and 298.50 g
Gross Findings ([1]; 25 mg/kg, I.P., PBS, 24 hours): No Gross Findings
Clin/Ob Prior to Necropsy ([1]; 25 mg/kg, I.P., PBS, 48 hours): Normal
Final Body Wt. ([1]; 25 mg/kg, I.P., PBS, 48 hours): 291.10 g and 291.80 g and 294.20 g
Gross Findings ([1]; 25 mg/kg, I.P., PBS, 48 hours): No Gross Findings
Clin/Ob Prior to Necropsy ([1]; 100 mg/kg, I.P., PBS, 6 hours): Normal
Gross Findings ([1]; 100 mg/kg, I.P., PBS, 6 hours): Liver left lobe mottled, median lobe mottled with dark edges; also recorded: No Gross Findings
Clin/Ob Prior to Necropsy ([1]; 100 mg/kg, I.P., PBS, 24 hours): Normal
Final Body Wt. ([1]; 100 mg/kg, I.P., PBS, 24 hours): 270.10 g and 280.10 g and 305.10 g and 290.70 g
Gross Findings ([1]; 100 mg/kg, I.P., PBS, 24 hours): No Gross Findings; also recorded: Liver median lobe mottled
Clin/Ob Prior to Necropsy ([1]; 400 mg/kg, I.P., PBS, 6 hours): Normal
Gross Findings ([1]; 400 mg/kg, I.P., PBS, 6 hours): No Gross Findings; also recorded: Liver left lobe mottled, median lobe mottled with dark edges
Clin/Ob Prior to Necropsy ([1]; 400 mg/kg, I.P., PBS, 24 hours): Normal
Final Body Wt. ([1]; 400 mg/kg, I.P., PBS, 24 hours): 270.50 g and 268.20 g and 301.80 g and 280.20 g
Gross Findings ([1]; 400 mg/kg, I.P., PBS, 24 hours): Liver left lobe with dark edges, median lobe mottled; also recorded: Liver left lobe mottled with dark edges, median lobe mottled; also recorded: No Gross Findings; also recorded: Liver left and median lobes dark and mottled
Clin/Ob Prior to Necropsy [1, 3]: Normal
Final Body Wt. [1, 3]: 287.20 g
Gross Findings [1, 3]: No Gross Findings
Clin/Ob Prior to Necropsy [1, 4]: Normal
Final Body Wt. [1, 4]: 284.20 g and 284.00 g and 295.90 g and 294.00 g
Gross Findings [1, 4]: No Gross Findings
Clin/Ob Prior to Necropsy [1, 5]: Piloerection, Decreased muscle tone; also recorded: Normal
Final Body Wt. [1, 5]: 263.20 g and 263.40 g and 260.90 g and 265.30 g
Gross Findings [1, 5]: Liver left and median lobes pale with mildly rough surface and dark edges; also recorded: Liver left lobe firm and pale with minimally rough surface and dark edges, median lobe firm, pale, and mottled with minimally rough surface; also recorded: Liver left lobe pale, mottled, and firm; median lobe pale with dark areas and firm
biliary hyperplasia ([2]; 48 hours): evoked biliary hyperplasia
extent of hepatocellular necrosis, amount of inflammatory cell infiltrates and/or indications of hepatocellular repair (mitosis) across animals ([2]; high dose, 48 hour): variability
Primary site of livery injury [2]: Random

C[C@H]1C(=O)O[C@@H]2CCN3CC=C(COC(=O)[C@](C)(O)[C@]1(C)O)[C@H]23 [Monocrotaline]
Clin/Ob Prior to Necropsy [1, 6]: normal
Gross Findings [1, 6]: No Gross Findings
Clin/Ob Prior to Necropsy [1, 7]: normal
Final Body Wt. [1, 7]: 224.70 g and 231.10 g and 243.30 g and 240.90 g
Gross Findings [1, 7]: No Gross Findings; also recorded: Liver - Herniated diaphragmatic nodule
Clin/Ob Prior to Necropsy [1, 8]: normal
Final Body Wt. [1, 8]: 241.60 g and 239.40 g and 266.80 g and 243.40 g
Gross Findings [1, 8]: Liver median lobe dark area 1x1x1 mm; also recorded: Liver median lobe red area 2x2x2 mm; also recorded: No Gross Findings; also recorded: Liver median lobe right side with red area 2x1x1 mm
Clin/Ob Prior to Necropsy [1, 9]: Piloerection
Final Body Wt. [1, 9]: 224.70 g and 224.00 g and 229.60 g and 222.60 g
Gross Findings [1, 9]: Liver left lobe dark and mottled with rough surface, median lobe dark and mottled; also recorded: Liver left and median lobes dark; also recorded: Liver left lobe dark and mottled, median lobe dark; kidney dark
Clin/Ob Prior to Necropsy [1, 10]: normal
Gross Findings [1, 10]: No Gross Findings
Clin/Ob Prior to Necropsy [1, 11]: normal
Final Body Wt. [1, 11]: 223.50 g and 226.80 g and 245.00 g and 241.70 g
Gross Findings [1, 11]: Liver left lobe mottled, median lobe mottled with minimal roughening of surface; also recorded: No Gross Findings; also recorded: Liver median lobe with dark area 2x2x2 mm
Clin/Ob Prior to Necropsy [1, 12]: normal
Final Body Wt. [1, 12]: 231.90 g and 232.10 g and 240.80 g and 232.90 g
Gross Findings [1, 12]: Liver left lobe with red area 10x2x2 mm, median lobe dark and mottled; also recorded: Liver left lobe firm, median lobe left side, ventral surface dark, dorsal surface with red area 2x2x2 mm, right side mottled and firm; also recorded: Liver median lobe right and left side with dark lower edges, dorsal surface mottled; also recorded: Liver median lobe with dark edges, right side dark and mottled, dorsal surface dark and mottled with mild roughening of surface
Clin/Ob Prior to Necropsy [1, 13]: normal
Gross Findings [1, 13]: No Gross Findings; also recorded: Liver, median lobe tan; also recorded: Liver, left lobe mottled, median lobe dark on edges, patchy 2x2x3 mm; also recorded: Liver left and median lobes mottled
Primary site of livery injury [2]: Centrilobular

O=NN1CCOCC1 [N-nitrosomorpholine]
Clin/Ob Prior to Necropsy [1, 6]: Normal
Gross Findings [1, 6]: No Gross Findings
Clin/Ob Prior to Necropsy [1, 7]: Normal
Final Body Wt. [1, 7]: 226.20 g and 225.80 g and 258.80 g and 254.30 g
Gross Findings [1, 7]: No Gross Findings
Clin/Ob Prior to Necropsy [1, 8]: Normal
Final Body Wt. [1, 8]: 238.00 g and 238.70 g and 249.90 g
Gross Findings [1, 8]: No Gross Findings
Clin/Ob Prior to Necropsy [1, 10]: Normal
Gross Findings [1, 10]: No Gross Findings
Clin/Ob Prior to Necropsy [1, 11]: Normal; also recorded: Corneal Opacity, right eye (pre-dose)
Final Body Wt. [1, 11]: 225.10 g and 189.30 g and 237.50 g and 242.10 g
Gross Findings [1, 11]: Liver posterior aspect of left lobe with dark focus (1x1 mm); also recorded: Liver left and median lobes with minimal roughening of surfaces; also recorded: Liver left and median lobes pale; also recorded: Liver left lobe pale and firm, median lobe firm with minimal roughening of surface
Clin/Ob Prior to Necropsy [1, 12]: Normal
Final Body Wt. [1, 12]: 229.00 g and 222.00 g and 233.70 g and 237.20 g
Gross Findings [1, 12]: Liver left and median lobes with mild roughening of surfaces; also recorded: Liver left and median lobes firm with minimal roughening of surfaces; also recorded: No Gross Findings
Clin/Ob Prior to Necropsy [1, 13]: Normal; also recorded: Corneal Opacity, right eye (pre-dose)
Gross Findings [1, 13]: No Gross Findings
Clin/Ob Prior to Necropsy [1, 14]: Normal
Final Body Wt. [1, 14]: 213.90 g and 207.30 g and 219.00 g and 228.80 g
Gross Findings [1, 14]: Liver left lobe mottled with minimal roughening of surface, median lobe with minimal roughening of surface; also recorded: Liver left lobe with minimal roughening of surface, median lobe mottled with minimal roughening of surface; also recorded: Liver left and median lobes with firm with mild roughening of surfaces
Clin/Ob Prior to Necropsy [1, 15]: Ungroomed Appearance
Final Body Wt. [1, 15]: 205.40 g and 202.50 g and 201.50 g and 203.90 g
Gross Findings [1, 15]: Liver left and median lobes dark with mild roughening of surfaces; median lobe with prominent centrilobular pattern; also recorded: Liver left and median lobes dark with mild roughening of surfaces; median lobe with fibrin on surface; also recorded: Liver left and median lobes firm and dark with mild roughening of surfaces
Primary site of livery injury [2]: Centrilobular
